The target of assay [1] is CDK9/cyclin T1 (Homo sapiens) (UniProt O60563+P50750). The experiment in a line: Selectivity interaction (Upstate Kinase Profiler service (Millipore)) EUB0000056c CDK9. It counts as protein-complex assay. Particulars: at 1 µM.
Assay [2] deals with Ribosomal protein S6 kinase alpha-1 (Homo sapiens, UniProt Q15418). The experiment in a line: Selectivity interaction (Ambit KINOMEscan and KiNATiv profiling in Jurkat cells) EUB0000090b RPS6KA1. It counts as cell-based. The conditions noted are these: at 1 µM.
In assay [3] the target is T1, Serine/threonine-protein kinase MAK (Homo sapiens) (UniProt P20794).
T1 sequence (whole entry): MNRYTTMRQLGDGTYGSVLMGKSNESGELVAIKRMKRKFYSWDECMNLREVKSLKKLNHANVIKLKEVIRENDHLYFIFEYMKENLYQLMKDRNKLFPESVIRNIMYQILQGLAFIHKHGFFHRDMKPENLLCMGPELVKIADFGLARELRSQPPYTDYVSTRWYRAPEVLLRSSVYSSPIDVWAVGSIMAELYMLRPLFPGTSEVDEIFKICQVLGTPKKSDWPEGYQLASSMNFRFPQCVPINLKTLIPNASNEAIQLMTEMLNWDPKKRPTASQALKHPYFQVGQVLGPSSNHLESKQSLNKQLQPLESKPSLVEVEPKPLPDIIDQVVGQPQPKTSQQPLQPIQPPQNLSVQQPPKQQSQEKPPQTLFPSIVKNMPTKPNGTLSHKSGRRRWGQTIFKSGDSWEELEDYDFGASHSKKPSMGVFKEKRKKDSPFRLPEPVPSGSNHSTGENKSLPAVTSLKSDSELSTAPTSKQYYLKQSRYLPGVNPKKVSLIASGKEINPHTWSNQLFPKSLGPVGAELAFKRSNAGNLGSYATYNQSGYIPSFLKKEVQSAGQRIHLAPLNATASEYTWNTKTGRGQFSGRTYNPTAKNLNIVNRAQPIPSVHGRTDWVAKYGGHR
The experiment in a line: Selectivity interaction (KinomeScan (DiscoverX)) EUB0000045b MAK.

Assay [4] deals with T2, Cyclin-G-associated kinase (Homo sapiens) (UniProt O14976).
T2 sequence (whole entry): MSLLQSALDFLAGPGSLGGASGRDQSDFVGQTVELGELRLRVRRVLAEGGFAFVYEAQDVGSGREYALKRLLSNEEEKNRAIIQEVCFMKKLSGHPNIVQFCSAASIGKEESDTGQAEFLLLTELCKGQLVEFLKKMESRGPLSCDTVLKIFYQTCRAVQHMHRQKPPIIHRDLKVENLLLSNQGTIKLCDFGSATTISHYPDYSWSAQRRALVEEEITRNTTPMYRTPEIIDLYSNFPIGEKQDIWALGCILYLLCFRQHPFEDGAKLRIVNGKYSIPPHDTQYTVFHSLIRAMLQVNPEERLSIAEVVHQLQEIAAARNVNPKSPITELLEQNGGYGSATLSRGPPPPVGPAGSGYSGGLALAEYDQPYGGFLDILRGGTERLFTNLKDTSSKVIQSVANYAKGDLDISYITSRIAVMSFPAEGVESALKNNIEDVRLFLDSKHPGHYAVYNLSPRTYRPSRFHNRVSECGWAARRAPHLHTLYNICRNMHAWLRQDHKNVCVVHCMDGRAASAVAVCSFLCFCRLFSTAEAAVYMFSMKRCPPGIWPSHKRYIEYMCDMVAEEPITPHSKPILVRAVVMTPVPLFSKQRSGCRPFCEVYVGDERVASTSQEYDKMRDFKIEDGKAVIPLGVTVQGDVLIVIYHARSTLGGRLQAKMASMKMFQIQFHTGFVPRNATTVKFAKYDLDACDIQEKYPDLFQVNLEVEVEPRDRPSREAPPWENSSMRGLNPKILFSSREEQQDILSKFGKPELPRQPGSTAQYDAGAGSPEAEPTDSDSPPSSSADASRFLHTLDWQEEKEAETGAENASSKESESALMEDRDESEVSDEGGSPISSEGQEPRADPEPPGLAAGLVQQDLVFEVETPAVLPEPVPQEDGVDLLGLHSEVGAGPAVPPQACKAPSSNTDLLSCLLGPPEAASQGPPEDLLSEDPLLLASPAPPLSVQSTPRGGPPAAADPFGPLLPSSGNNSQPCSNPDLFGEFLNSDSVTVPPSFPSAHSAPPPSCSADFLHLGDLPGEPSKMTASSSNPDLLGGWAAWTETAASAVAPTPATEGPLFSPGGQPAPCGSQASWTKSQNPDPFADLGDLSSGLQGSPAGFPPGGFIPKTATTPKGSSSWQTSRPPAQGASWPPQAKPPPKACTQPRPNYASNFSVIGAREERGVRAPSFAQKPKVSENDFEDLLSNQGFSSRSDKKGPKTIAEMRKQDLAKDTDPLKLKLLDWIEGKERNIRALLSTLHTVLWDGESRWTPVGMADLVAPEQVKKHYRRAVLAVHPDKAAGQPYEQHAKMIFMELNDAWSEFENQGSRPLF
As to the kind of experiment: Selectivity interaction (KinomeScan (DiscoverX)) EUB0000607a GAK. The conditions noted are these: at 10 µM.

Assay [5] addresses Tyrosine-protein kinase SYK (Homo sapiens, UniProt P43405). As to the kind of experiment: Selectivity interaction (ActivX KiNativ screen (ex vivo kinase selectivity in human PBMCs)) EUB0001619a SYK. The conditions noted are these: PBMC, at 1 µM. It counts as cell-based.
For assay [6], the target named is T3, Serine/threonine-protein kinase ULK3 (Homo sapiens) (UniProt Q6PHR2).
T3 sequence (whole entry): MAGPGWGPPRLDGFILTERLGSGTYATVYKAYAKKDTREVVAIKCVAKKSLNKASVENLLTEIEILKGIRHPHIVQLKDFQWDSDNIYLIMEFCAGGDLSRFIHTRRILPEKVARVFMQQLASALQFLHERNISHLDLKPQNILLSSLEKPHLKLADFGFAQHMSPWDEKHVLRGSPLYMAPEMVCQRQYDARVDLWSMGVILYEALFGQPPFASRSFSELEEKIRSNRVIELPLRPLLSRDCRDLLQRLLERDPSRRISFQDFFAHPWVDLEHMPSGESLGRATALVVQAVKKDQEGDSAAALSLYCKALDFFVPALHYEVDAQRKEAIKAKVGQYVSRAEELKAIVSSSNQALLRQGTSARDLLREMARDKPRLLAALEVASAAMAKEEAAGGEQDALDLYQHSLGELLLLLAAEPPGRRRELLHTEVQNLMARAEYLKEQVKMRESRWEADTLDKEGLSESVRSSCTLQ
The experiment in a line: Selectivity interaction (ActivX KiNativ screen (ex vivo kinase selectivity in human PBMCs)) EUB0001619a ULK3. It counts as cell-based. The conditions noted are these: PBMC, at 1 µM.

% of inhibition and % of control data for 5 compounds are collected here from ChEMBL document CHEMBL5465560, “Selectivity Literature for EUbOPEN Chemogenomic Library” (2024).

Ribosomal protein S6 kinase alpha-1, sequence (Q15418 whole entry): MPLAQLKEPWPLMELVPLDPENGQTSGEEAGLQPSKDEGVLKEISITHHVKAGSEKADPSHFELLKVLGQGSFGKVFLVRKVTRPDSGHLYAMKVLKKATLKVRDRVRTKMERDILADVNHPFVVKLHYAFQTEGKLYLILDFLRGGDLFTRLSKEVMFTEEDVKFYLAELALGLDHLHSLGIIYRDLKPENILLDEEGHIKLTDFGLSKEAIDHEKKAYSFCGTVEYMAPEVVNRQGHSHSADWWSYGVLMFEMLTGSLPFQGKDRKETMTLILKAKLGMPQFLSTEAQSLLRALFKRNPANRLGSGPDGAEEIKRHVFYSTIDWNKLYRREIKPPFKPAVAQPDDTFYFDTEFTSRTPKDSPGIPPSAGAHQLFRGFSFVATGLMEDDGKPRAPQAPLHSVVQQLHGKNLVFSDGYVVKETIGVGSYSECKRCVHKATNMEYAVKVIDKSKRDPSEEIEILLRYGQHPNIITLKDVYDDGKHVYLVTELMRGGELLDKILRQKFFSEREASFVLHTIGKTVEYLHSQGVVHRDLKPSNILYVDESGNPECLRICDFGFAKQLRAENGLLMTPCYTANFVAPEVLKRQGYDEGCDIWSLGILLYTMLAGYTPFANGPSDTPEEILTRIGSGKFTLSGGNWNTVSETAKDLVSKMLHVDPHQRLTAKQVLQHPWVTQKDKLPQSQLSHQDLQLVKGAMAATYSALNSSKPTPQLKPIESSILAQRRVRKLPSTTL

`Cc1ccc(-c2ccc3c(ccc4sc5c(c43)NC[C@@H](C)NC5=O)n2)cn1` came in with a % of inhibition in assay [1] of 41%.
For the compound `CN(C)C/C=C/C(=O)Nc1ccc(C(=O)N2CCCC(Nc3ncc(Cl)c(-c4c[nH]c5ccccc45)n3)C2)cc1` (configuration not stated), the % of control in assay [2] is 14%.
Take `C=CC(=O)Nc1cc(-n2c(=O)ccc3cnc4ccc(-c5ccc(NS(C)(=O)=O)cc5)cc4c32)ccc1C`: the values for the % of control in assay [3] (at 1 µM) and in assay [3] (at 10 µM) were 70% and 100%, respectively.
`CNC(=O)Nc1ccc(-c2nc(N3CC4CCC(C3)O4)c3cnn(C4CCC5(CC4)OCCO5)c3n2)cc1` showed a % of control in assay [4] of 75%.
Turning to `N#Cc1cccc(-c2c[nH]c3ncnc(N4CCOCC4)c23)c1`, the % of inhibition in assay [5] is 1%; in assay [6], 5%.
